Results: patent US12485169B2, “Compounds” (GREY WOLF THERAPEUTICS LIMITED, priority 2018, dated 2025)

Target: T1, Purified ERAP1 (37-941)-10His (ERAP1) (Homo sapiens, UniProt Q9NZ08)
T1 construct: Purified ERAP1 (37-941)-10His (ERAP1)
Test: ERAP1 mediated hydrolysis of an amide substrate (10-mer inhibition assay), biochemical system
Settings: 10-mer substrate, 23° C., 1 h, excitation 279 nm / emission 355 nm; read-out: IC50 vs Decapeptide WRVYEKC(Dnp)ALK-acid (where Dnp is Dinitrophenyl maleimide) (10-mer)

T1 sequence (Q9NZ08 37-941): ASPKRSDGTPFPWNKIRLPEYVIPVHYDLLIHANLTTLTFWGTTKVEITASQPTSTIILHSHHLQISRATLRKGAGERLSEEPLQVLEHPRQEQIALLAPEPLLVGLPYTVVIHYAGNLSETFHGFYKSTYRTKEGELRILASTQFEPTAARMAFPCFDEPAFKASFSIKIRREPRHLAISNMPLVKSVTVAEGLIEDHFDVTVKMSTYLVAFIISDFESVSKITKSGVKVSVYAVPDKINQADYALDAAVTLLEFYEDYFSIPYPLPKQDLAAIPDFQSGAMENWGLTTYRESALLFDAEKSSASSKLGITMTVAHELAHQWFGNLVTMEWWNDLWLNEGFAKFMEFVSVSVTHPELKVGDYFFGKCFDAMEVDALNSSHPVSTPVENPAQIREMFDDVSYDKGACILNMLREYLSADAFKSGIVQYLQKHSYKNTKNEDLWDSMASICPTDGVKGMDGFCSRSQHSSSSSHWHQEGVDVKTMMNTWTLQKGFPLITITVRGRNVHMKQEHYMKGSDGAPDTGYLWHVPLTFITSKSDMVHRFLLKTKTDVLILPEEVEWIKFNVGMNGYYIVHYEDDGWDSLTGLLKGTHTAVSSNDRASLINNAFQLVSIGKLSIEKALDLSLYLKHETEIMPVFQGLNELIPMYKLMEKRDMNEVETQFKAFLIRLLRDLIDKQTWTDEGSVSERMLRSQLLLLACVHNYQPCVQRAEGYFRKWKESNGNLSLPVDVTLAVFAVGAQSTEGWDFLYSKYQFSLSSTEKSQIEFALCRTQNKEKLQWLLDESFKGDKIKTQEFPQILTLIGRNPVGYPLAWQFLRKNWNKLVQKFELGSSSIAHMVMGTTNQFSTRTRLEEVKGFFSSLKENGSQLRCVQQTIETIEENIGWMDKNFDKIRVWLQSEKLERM

IC50 [nM] | SMILES
> 5000 | COc1ccc(C(=O)O)cc1S(=O)(=O)Nc1cc(C(F)(F)F)ccc1N1C[C@H]2CN(C)C[C@H]2C1 [Example 8, 4-methoxy-3-(N-(2-(cis-5-methylhexahydropyrrolo[3,4-c]pyrrol-2 (1H)-yl)-5-(trifluoromethyl)phenyl)sulfamoyl)benzoic acid]
< 500 | CCc1ccc(C(=O)O)cc1S(=O)(=O)Nc1cc(-c2nncs2)ccc1N1CCCCC1 [Example 278, 4-ethyl-3-(N-(2-(piperidin-1-yl)-5-(1,3,4-thiadiazol-2-yl)phenyl)sulfamoyl)benzoic acid]
< 500 | N#Cc1ccc(N2CCC(F)(F)CC2)c(NS(=O)(=O)c2cc(C(=O)O)ccc2C2CC2)c1 [Example 310, 3-(N-(5-cyano-2-(4,4-difluoropiperidin-1-yl)phenyl)sulfamoyl)-4-cyclopropylbenzoic acid]
< 500 | CCc1ccc(C(=O)O)cc1S(=O)(=O)Nc1cc(C(F)(F)F)ccc1N1CCC[C@@H](O)C1 [Example 249, I-4-ethyl-3-(N-(2-(3-hydroxypiperidin-1-yl)-5-(trifluoromethyl)phenyl)sulfamoyl)benzoic acid]
< 500 | CCc1ccc(C(=O)O)cc1S(=O)(=O)Nc1cc(C#N)ccc1N1CCC(F)(F)CC1 [Example 222, 3-(N-(5-cyano-2-(4,4-difluoropiperidin-1-yl)phenyl)sulfamoyl)-4-ethylbenzoic acid]
< 500 | CCc1ccc(C(=O)O)cc1S(=O)(=O)Nc1cc(S(C)(=O)=O)ccc1N1CCC(F)(F)CC1 [Example 308, 3-(N-(2-(4,4-difluoropiperidin-1-yl)-5-(methylsulfonyl)phenyl)sulfamoyl)-4-ethylbenzoic acid]
< 500 | COc1ccc(C(=O)O)cc1S(=O)(=O)Nc1cc(C#N)ccc1N1CCC(F)(F)CC1 [Example 221, 3-(N-(5-cyano-2-(4,4-difluoropiperidin-1-yl)phenyl)sulfamoyl)-4-methoxybenzoic acid]
< 5000 | COc1ccc(-c2nn[nH]n2)cc1NS(=O)(=O)c1cc(C(F)(F)F)ccc1N1CCCCC1 [Example 63, N-(2-methoxy-5-(tetrazol-5-yl)phenyl)-2-(piperidin-1-yl)-5-(trifluoromethyl) benzenesulfonamide]
> 5000 | COc1ccc(C(=O)O)cc1S(=O)(=O)Nc1cc(C(F)(F)F)ccc1N1CCC(O)(C(F)(F)F)CC1 [Example 17, 3-(N-(2-(4-hydroxy-4-(trifluoromethyl)piperidin-1-yl)-5-(trifluoromethyl)phenyl)sulfamoyl)-4-methoxybenzoic acid]
< 500 | CC(C)(O)c1ccc(C(=O)O)cc1S(=O)(=O)Nc1cc(C(F)(F)F)ccc1N1CCCCC1 [Example 228, 4-(2-hydroxypropan-2-yl)-3-(N-(2-(piperidin-1-yl)-5-(trifluoromethyl)phenyl)sulfamoyl)benzoic acid]
< 500 | COc1ccc(C(=O)O)cc1S(=O)(=O)Nc1cc(C(F)(F)F)cc(F)c1N1CCCCC1 [Example 184, 3-(N-(3-fluoro-2-(piperidin-1-yl)-5-(trifluoromethyl)phenyl)sulfamoyl)-4-methoxybenzoic acid]
< 500 | COc1ccc(C(=O)O)cc1S(=O)(=O)Nc1cc(Cl)ccc1N1CCCC(F)(F)C1 [Example 219, 3-(N-(5-chloro-2-(3,3-difluoropiperidin-1-yl)phenyl)sulfamoyl)-4-methoxybenzoic acid]
< 5000 | COc1ccc(C(=O)O)cc1S(=O)(=O)Nc1cc(C(F)(F)F)ccc1N1CC[C@@H](O)C1 [Example 188, (R)-3-(N-(2-(3-hydroxypyrrolidin-1-yl)-5-(trifluoromethyl)phenyl)sulfamoyl)-4-methoxybenzoic acid]
< 500 | CCc1ccc(C(=O)O)cc1S(=O)(=O)Nc1cc(S(C)(=O)=O)ccc1N1CCC[C@@H](O)C1 [Example 251, I-4-ethyl-3-(N-(2-(3-hydroxypiperidin-1-yl)-5-(methylsulfonyl)phenyl)sulfamoyl)benzoic acid]

The next lines start with the compound.

SMILES | IC50 [nM]
COc1ccc(C(=O)O)cc1S(=O)(=O)Nc1cc(C(F)(F)F)ccc1N1CCC(OC)CC1 [Example 181, 4-methoxy-3-(N-(2-(4-methoxypiperidin-1-yl)-5-(trifluoromethyl)phenyl)sulfamoyl)benzoic acid] | < 500
COc1ccc(C(=O)O)cc1S(=O)(=O)Nc1cc(C(F)(F)F)ccc1N1CCCC(C)(O)C1 (stereo not drawn) [Example 29, 3-(N-(2-(3-hydroxy-3-methylpiperidin-1-yl)-5-(trifluoromethyl)phenyl)sulfamoyl)-4-methoxybenzoic acid] | < 500
CCc1ccc(C(=O)O)cc1S(=O)(=O)Nc1cc(-c2cnoc2C)ccc1N1CCCCC1 [Example 279, 4-ethyl-3-(N-(5-(5-methylisoxazol-4-yl)-2-(piperidin-1-yl)phenyl)sulfamoyl)benzoic acid] | < 500
COc1ccc(C(=O)O)cc1S(=O)(=O)Nc1cc(C(F)(F)F)ccc1N1CCCC(O)C1 (stereo not drawn) [Example 177, 3-(N-(2-(3-hydroxypiperidin-1-yl)-5-(trifluoromethyl)phenyl)sulfamoyl)-4-methoxybenzoic acid] | < 500
COc1ccc(C(=O)O)cc1S(=O)(=O)Nc1cc(-n2cnnn2)ccc1N1CCC[C@@H](O)C1 [Example 248, I-3-(N-(2-(3-hydroxypiperidin-1-yl)-5-(tetrazol-1-yl)phenyl)sulfamoyl)-4-methoxybenzoic acid] | < 500
CCc1ccc(C(=O)O)cc1S(=O)(=O)Nc1cc(-c2cnoc2C)c(F)cc1N1CCCCC1 [Example 304, 4-ethyl-3-(N-(4-fluoro-5-(5-methylisoxazol-4-yl)-2-(piperidin-1-yl)phenyl)sulfamoyl)benzoic acid] | < 500
N#Cc1cc(NS(=O)(=O)c2cc(C(=O)O)ccc2C2CC2)c(N2CCCCC2)cc1F [Example 324, 3-(N-(5-cyano-4-fluoro-2-(piperidin-1-yl)phenyl)sulfamoyl)-4-cyclopropylbenzoic acid] | < 500
CCc1ccc(C(=O)O)cc1S(=O)(=O)Nc1cc(-n2cnnn2)ccc1N1CCC[C@H](O)C1 [Example 254, (S)-4-ethyl-3-(N-(2-(3-hydroxypiperidin-1-yl)-5-(tetrazol-1-yl)phenyl)sulfamoyl)benzoic acid] | < 500
CCc1ccc(C(=O)O)cc1S(=O)(=O)Nc1cc(-c2ccnnc2)ccc1N1CCCCC1 [Example 302, 4-ethyl-3-(N-(2-(piperidin-1-yl)-5-(pyridazin-4-yl)phenyl)sulfamoyl)benzoic acid] | < 500
CCc1ccc(C(=O)O)cc1S(=O)(=O)Nc1cc(-c2cnoc2C)c(Cl)cc1N1CCCCC1 [Example 306, 4-ethyl-3-(N-(4-Chloro-5-(5-methylisoxazol-4-yl)-2-(piperidin-1-yl)phenyl)sulfamoyl)benzoic acid] | < 500
O=C(O)c1ccc(C2CC2)c(S(=O)(=O)Nc2cc(-n3cnnn3)c(Cl)cc2N2CCCCC2)c1 [Example 334, 3-(N-(4-chloro-2-(piperidin-1-yl)-5-(tetrazol-1-yl)phenyl)sulfamoyl)-4-cyclopropylbenzoic acid] | < 500
COc1ccc(C(=O)O)cc1S(=O)(=O)Nc1cc(C(F)(F)F)ccc1N1CCC(C)(O)CC1 [Example 28, 3-(N-(2-(4-hydroxy-4-methylpiperidin-1-yl)-5-(trifluoromethyl)phenyl)sulfamoyl)-4-methoxybenzoic acid] | < 500
CS(=O)(=O)c1cc(NS(=O)(=O)c2cc(C(=O)O)ccc2C2CC2)c(N2CCCCC2)cc1F [Example 331, 4-cyclopropyl-3-(N-(4-fluoro-5-(methylsulfonyl)-2-(piperidin-1-yl)phenyl)sulfamoyl)benzoic acid] | < 500
N#Cc1ccc(N2CCCCC2)c(NS(=O)(=O)c2cc(C(=O)O)ccc2C2CCC2)c1 [Example 330, 3-(N-(5-cyano-2-(piperidin-1-yl)phenyl)sulfamoyl)-4-cyclobutylbenzoic acid] | < 500
N#Cc1ccc(N2CCC(F)CC2)c(NS(=O)(=O)c2cc(C(=O)O)ccc2C2CC2)c1 [Example 322, 3-(N-(5-cyano-2-(4-fluoropiperidin-1-yl)phenyl)sulfamoyl)-4-cyclopropylbenzoic acid] | < 500
CCc1ccc(C(=O)O)cc1S(=O)(=O)Nc1cc(C(F)(F)F)ccc1N1CCCOCC1 [Example 43, 3-(N-(2-(1,4-oxazepan-4-yl)-5-(trifluoromethyl)phenyl)sulfamoyl)-4-ethylbenzoic acid] | < 500
CCc1ccc(C(=O)O)cc1S(=O)(=O)Nc1cc(-c2cc[nH]n2)ccc1N1CCCCC1 [Example 276, 4-ethyl-3-(N-(2-(piperidin-1-yl)-5-(pyrazol-3-yl)phenyl)sulfamoyl)benzoic acid] | < 500
COc1ccc(C(=O)O)cc1S(=O)(=O)Nc1cc(C(F)(F)F)ccc1N1C[C@H](O)[C@@H](F)C1 (relative stereo) [Example 190, 3-(N-(2-(trans-3-fluoro-4-hydroxypyrrolidin-1-yl)-5-(trifluoromethyl)phenyl)sulfamoyl)-4-methoxybenzoic acid] | < 5000
CCc1ccc(C(=O)O)cc1S(=O)(=O)Nc1cc(C(F)(F)F)ccc1N1CC(C)(O)C1 [Example 270, 4-ethyl-3-(N-(2-(3-hydroxy-3-methylazetidin-1-yl)-5-(trifluoromethyl)phenyl)sulfamoyl)benzoic acid] | < 5000
CCc1ccc(C(=O)O)cc1S(=O)(=O)Nc1cc(C#N)ccc1N1CCC[C@@H](O)C1 [Example 260, I-3-(N-(5-cyano-2-(3-hydroxypiperidin-1-yl)phenyl)sulfamoyl)-4-ethylbenzoic acid] | < 500
CCc1ccc(C(=O)O)cc1S(=O)(=O)Nc1cc(C#N)ccc1N1CCC(F)CC1 [Example 318, 3-(N-(5-cyano-2-(4-fluoropiperidin-1-yl)phenyl)sulfamoyl)-4-ethylbenzoic acid] | < 500
COc1ccc(C(=O)O)cc1S(=O)(=O)Nc1cc(C(F)(F)F)ccc1N1CCCC[C@@H]1C [Example 239, (S)-4-methoxy-3-(N-(2-(2-methylpiperidin-1-yl)-5-(trifluoromethyl)phenyl)sulfamoyl)benzoic acid] | < 500
